Measured values from patent publication US20040102468A1 (Gruenenthal GmbH, priority 2001, published 2004).

Assays:
[1] = system: female Sprague-Dawley rats with oxyhaemoglobin-induced bladder overactivity; assay: Cystometry on conscious damaged rats (oxyhaemoglobin-induced bladder overactivity, urgency incontinence model); format: in vivo, rat; conditions: OxyHb 2.5 × 10^−4 M alone
[2] = system: rat; conditions: rat model of rhythmic bladder contractions; cited from earlier work

With oxyhaemoglobin [OxyHb] the “BC bladder capacity, after (a)” value ([1]; n=5) was “a: 0.65 ± 0.06 ml”, the “BC bladder capacity, change (dif.) compared with the pre-value” ([1]; n=5) was “dif.: −29.3%” and the “ICI intercontraction interval, after (a)” value ([1]; n=5) was “a: 3.33 ± 0.18 min”. The “ICI intercontraction interval, change (dif.) compared with the pre-value” ([1]; n=5) was “dif.: −32.9%”, the “MP micturition pressure, after (a)” value ([1]; n=5) was “a: 97 ± 5 cm H2O” and the “MP micturition pressure, change (dif.) compared with the pre-value” ([1]; n=5) was “dif.: +64.4%”. The “TP threshold pressure, after (a)” value ([1]; n=5) was “a: 9.84 ± 1.56 cm H2O”, the “TP threshold pressure, change (dif.) compared with the pre-value” ([1]; n=5) was “dif.: +12.8%” and the “BC bladder capacity, before (b)” value ([1]; n=5, pre-value) was “b: 0.92 ± 0.10 ml”. The “ICI intercontraction interval, before (b)” value ([1]; n=5, pre-value) was “b: 4.96 ± 0.33 min”, the “MP micturition pressure, before (b)” value ([1]; n=5, pre-value) was “b: 59 ± 8 cm H2O” and the “TP threshold pressure, before (b)” value ([1]; n=5, pre-value) was “b: 8.72 ± 1.31 cm H2O”.
In the case of COc1cccc(C2(O)CCCCC2CN(C)C)c1 (stereo not shown) [tramadol], the “effect on bladder function” value [2] is listed as “positive effect on bladder function”.
